From patent US20240270733A1, “HYDRATE FORM OF LAZERTINIB MESYLATE, PREPARATION METHOD THEREOF AND USE THEREOF” (HANGZHOU SOLIPHARMA CO., LTD., priority 2021, published 2024)
“Also recorded” adds a separate entry of the source. Counter-ions that a name gives are not always drawn. Like-named read-outs stand apart in the source and are kept apart here.

Columns and labels:
[1] = cited from earlier work
[2] = 40° C., 75% RH; for Assay (%) / Color / XRPD: open vial
Procedure: The samples were placed under accelerated open-vial conditions (40° C., 75% RH, and open vial) to assess the stability of both samples.

[3] = Accelerated closed-vial stability study; format: physicochemical; details: 40° C., 75% RH
[4] = pH 1.2
[5] = Variable-temperature XRPD; format: physicochemical; details: heated up to 100° C.
Procedure: In this application, X-ray powder diffraction (XRPD) data were collected using a BrukerD8 Advance diffractometer; parameters are as follows: Cu radiation; wavelength: 1.54 Å; Current voltage: 40 KV, 40 mA; Scan range: 3˜40° 2θ.

physchem [6] = details: thermodynamic from solid
physchem [7] = details: thermodynamic from solid, Instantaneous Solubility
[8] = sealed 5 mL vial in self-sealing bag
[9] = pH 1.2, simulated gastric fluid

Question: With C=CC(=O)Nc1cc(Nc2nccc(-n3cc(CN(C)C)c(-c4ccccc4)n3)n2)c(OC)cc1N1CCOCC1 [Form I, lazertinib mono-mesylate, reference compound] as the compound, how does the solubility ([1]; pH 1.2) read?
Answer: 14.9 mg/mL

Question: And the solubility ([1]; pH 4)?
Answer: 20.9 mg/mL

Question: And the “Assay (%)” value ([2]; 0 day)?
Answer: 98.73%

Question: And the Color ([2]; 0 day)?
Answer: yellow

Question: And the XRPD ([2]; 0 day)?
Answer: Form I

Question: What about the “Assay (%)” value ([2]; 21 days) of the same compound?
Answer: 70.35%

Question: What about the Color ([2]; 21 days) of the same compound?
Answer: pink

Question: And the XRPD ([2]; 21 days)?
Answer: Form I

Question: What about the “change in assay value (in words)” value ([2]; open, 21 days) of the same compound?
Answer: significant decrease

Question: What about the “change in color (in words)” value ([2]; open, 21 days) of the same compound?
Answer: from yellow to pink

Question: For C=CC(=O)Nc1cc(Nc2nccc(-n3cc(CN(C)C)c(-c4ccccc4)n3)n2)c(OC)cc1N1CCOCC1 [Form A, lazertinib mesylate], which “remains stable for at least (time)” value ([3]; 5 mL vial packed in a self-sealing bag (sealed)) is on record?
Answer: at least 1 month

Question: What about the “change in assay value” [3, 8] of the same compound?
Answer: minimal change; also recorded: no significant changes

Question: And the “color before and after storage” value [3, 8]?
Answer: white; also recorded: no significant changes

Question: What about the “crystal form before and after storage” value [3, 8] of the same compound?
Answer: remains unchanged; also recorded: no significant changes

Question: And the “Instantaneous Solubility” value [4]?
Answer: >50 mg/mL

Question: And the “remains stable for at least (time)” value ([2]; open)?
Answer: at least 21 days

Question: What about the “Assay (%)” value ([2]; 0 day) of the same compound?
Answer: 98.79%

Question: What about the Color ([2]; 0 day) of the same compound?
Answer: white

Question: What about the XRPD ([2]; 0 day) of the same compound?
Answer: Form A

Question: What about the “Assay (%)” value ([2]; 21 days) of the same compound?
Answer: 98.44%

Question: And the Color ([2]; 21 days)?
Answer: white

Question: What about the XRPD ([2]; 21 days) of the same compound?
Answer: Form A

Question: What about the “crystal form on heating (variable-temperature XRPD)” value [5] of the same compound?
Answer: remains unchanged

Question: What about the solubility at 4 hrs (physchem [6]; [9]) of the same compound?
Answer: > 60 mg/mL

Question: And the solubility at 12 hrs (physchem [6]; [9])?
Answer: > 60 mg/mL

Question: And the solubility thermodynamic (physchem [6]; [9])?
Answer: > 60 mg/mL

Question: And the solubility at 4 hrs (physchem [6]; pH 4, aqueous buffer)?
Answer: 67.9 mg/mL

Question: And the solubility at 12 hrs (physchem [6]; pH 4, aqueous buffer)?
Answer: 67 mg/mL

Question: What about the solubility thermodynamic (physchem [6]; pH 4, aqueous buffer) of the same compound?
Answer: > 60 mg/mL

Question: What about the solubility at 4 hrs (physchem [6]; water) of the same compound?
Answer: 70.7 mg/mL

Question: And the solubility at 12 hrs (physchem [6]; water)?
Answer: 69.4 mg/mL

Question: What about the solubility thermodynamic (physchem [6]; water) of the same compound?
Answer: > 60 mg/mL

Question: What about the solubility (physchem [7]; [9]) of the same compound?
Answer: > 80 mg/mL

Question: What about the solubility (physchem [7]; pH 4, aqueous buffer) of the same compound?
Answer: > 50 mg/mL

Question: And the solubility (physchem [7]; water)?
Answer: > 50 mg/mL
